Each structure is given as a SMILES string. Bridge positions count the residues as written; N and C are the ends. Square brackets hold non-standard residues; d marks the D form. Peptide text beside a SMILES is read from it. * marks the point of attachment. ξ: configuration not given here. Phe(4-COOH) = N[C@@H](Cc1ccc(C(=O)O)cc1)C(=O)O; Bip = N[C@@H](Cc1ccc(-c2ccccc2)cc1)C(=O)O; Phe(3-CN) = N#Cc1cccc(C[C@H](N)C(=O)O)c1; Phe(4-CN) = N#Cc1ccc(C[C@H](N)C(=O)O)cc1; Phe(3-F) = N[C@@H](Cc1cccc(F)c1)C(=O)O; Phe(3-Me) = Cc1cccc(C[C@H](N)C(=O)O)c1; Phe(4-F) = N[C@@H](Cc1ccc(F)cc1)C(=O)O; Bta = N[C@@H](Cc1csc2ccccc12)C(=O)O; Val(3-OH) = CC(C)(O)[C@H](N)C(=O)O; 4Pal = N[C@@H](Cc1ccncc1)C(=O)O; d4Pal = N[C@H](Cc1ccncc1)C(=O)O; 2Thi = N[C@@H](Cc1cccs1)C(=O)O; Cha = N[C@@H](CC1CCCCC1)C(=O)O; Cit = NC(=O)NCCC[C@H](N)C(=O)O; Carboxymethyl = O=C(O)C*; NMeA = CN[C@@H](C)C(=O)O; Orn = NCCC[C@H](N)C(=O)O; Pra = C#CC[C@H](N)C(=O)O; Dab = NCC[C@H](N)C(=O)O; Dap = NC[C@H](N)C(=O)O; ξC = NC(CS)C(=O)O

The target in this assay is T1, PE-labeled human PD-L1-Ig binding to Jurkat cell line over-expressing human PD-1 (Jurkat-PD-1) (Homo sapiens, UniProt Q15116).
T1 construct: expressed in transfected cells; host or cells: Jurkat
T1 sequence (Q15116 25-288): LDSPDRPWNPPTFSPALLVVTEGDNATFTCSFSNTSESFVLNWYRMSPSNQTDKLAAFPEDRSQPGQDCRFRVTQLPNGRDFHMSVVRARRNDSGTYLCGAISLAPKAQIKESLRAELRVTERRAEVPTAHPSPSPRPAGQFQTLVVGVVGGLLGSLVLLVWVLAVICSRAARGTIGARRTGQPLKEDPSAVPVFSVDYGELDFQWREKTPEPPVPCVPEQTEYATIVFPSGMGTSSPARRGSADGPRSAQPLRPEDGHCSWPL
Nature of the assay: Jurkat-PD-1 Cell Binding High-Content Screening Assay (CBA): Method 1. The following applies: Jurkat-hPD-1 cells, PE-labeled PD-L1-Ig 20 nM final; read-out: Jurkat HPDL1 PD1 IC50 (uM) (Method 1).
What is called IC50 is the concentration that inhibits the measured activity by half. `CC(C)C[C@@H]1NC(=O)[C@H](CCN)NC(=O)[C@@H](CC(C)C)NC(=O)[C@H](C)N(C)C(=O)[C@H](CCCNC(=N)N)NC(=O)[C@H](Cc2ccc(-c3ccccc3)cc2)NC(=O)[C@H](C(C)C)NC(=O)[C@H](Cc2c[nH]c3ccccc23)NC(=O)[C@H](CC(=O)O)NC(=O)[C@H](Cc2cccc(C#N)c2)NC(=O)[C@H](CN)NC(=O)CSC[C@@H](C(=O)N[C@@H](C)C(N)=O)NC(=O)[C@H]([C@@H](C)O)NC(=O)[C@H](C(C)C)NC1=O` [Compound 1455] ({CH2CO}-[Dap][Phe(3-CN)]DWV[Bip]R[NMeA][dL][Dab]LVTCA-NH2; thioether N-14): the IC50 is 0.08 µM.

As for `Cc1cccc(C[C@@H]2NC(=O)[C@H](CC(=O)O)NC(=O)[C@H](Cc3ccc(C(=O)O)cc3)NC(=O)[C@H](Cc3ccc(F)cc3)NC(=O)CSC[C@@H](C(=O)N[C@@H](CCN)C(N)=O)NC(=O)[C@H](CCC(=O)O)NC(=O)[C@H](C(C)C)NC(=O)[C@H](CC3CCCCC3)NC(=O)[C@H](CCN)NC(=O)[C@@H](CC(C)C)NC(=O)[C@H](C)N(C)C(=O)[C@H](Cc3ccc(C(=O)O)cc3)NC(=O)[C@H](Cc3ccc(-c4ccccc4)cc3)NC(=O)[C@H](Cc3ccc(C(=O)O)cc3)NC2=O)c1` [Compound 2208] ({CH2CO}-[Phe(4-F)][Phe(4-COOH)]D[Phe(3-Me)][Phe(4-COOH)][Bip][Phe(4-COOH)][NMeA][dL][Dab][Cha]VEC[Dab]-NH2; thioether N-14), the IC50 was 0.01 µM.

In the case of `Cc1cccc(C[C@@H]2NC(=O)[C@H](CC(=O)O)NC(=O)[C@H](Cc3ccc(OCC(=O)O)cc3)NC(=O)[C@H](CN)NC(=O)CSCC(C(N)=O)NC(=O)[C@H](CO)NC(=O)[C@H](C(C)C)NC(=O)[C@H](CC(C)C)NC(=O)[C@H](CC(N)=O)NC(=O)[C@@H](CC(C)C)NC(=O)[C@H](C)N(C)C(=O)[C@H](C(C)C)NC(=O)[C@H](Cc3ccc(-c4ccccc4)cc3)NC(=O)[C@H](CC(C)C)NC2=O)c1` (stereo partly drawn) [Compound 1597] ({CH2CO}-[Dap]Y(Carboxymethyl)D[Phe(3-Me)]L[Bip]V[NMeA][dL]NLVS[ξC]-NH2; thioether N-14), the half-maximal inhibitory concentration (IC50) was determined as 0.05 µM.

On to `CC[C@H](C)[C@@H]1NC(=O)[C@H](Cc2ccc(-c3ccccc3)cc2)NC(=O)[C@H](C(C)C)NC(=O)[C@H](Cc2c[nH]c3ccccc23)NC(=O)[C@H](CC(=O)O)NC(=O)[C@H](Cc2ccc(OCC(=O)O)cc2)NC(=O)[C@H](Cc2ccncc2)NC(=O)CSC[C@@H](C(=O)N[C@@H](C)C(N)=O)NC(=O)[C@H]([C@@H](C)O)NC(=O)[C@H](C(C)C)NC(=O)[C@H](CC(C)C)NC(=O)[C@H](CCN)NC(=O)[C@@H](CC(C)C)NC(=O)[C@H](C)N(C)C1=O` [Compound 1413] ({CH2CO}-[4Pal]Y(Carboxymethyl)DWV[Bip]I[NMeA][dL][Dab]LVTCA-NH2; thioether N-14), for which the concentration for half-maximal inhibition (IC50) is 0.03 µM.

Turning to `CC(C)C[C@@H]1NC(=O)[C@H](Cc2c[nH]c3ccccc23)NC(=O)[C@H](CC(=O)O)NC(=O)[C@H](Cc2ccc(O)cc2)NC(=O)[C@H](Cc2ccccc2)NC(=O)CSC[C@@H](C(=O)N[C@@H](C)C(N)=O)NC(=O)[C@H](CO)NC(=O)[C@H](C(C)C)NC(=O)[C@H](CC(C)C)NC(=O)[C@H](CC(N)=O)NC(=O)[C@@H](CC(C)C)NC(=O)[C@H](C)N(C)C(=O)[C@H](C(C)C)NC(=O)[C@H](Cc2ccc(-c3ccccc3)cc2)NC1=O` [Compound 1745] ({CH2CO}-FYDWL[Bip]V[NMeA][dL]NLVSCA-NH2; thioether N-14), the IC50 came to 0.02 µM.

As for `CC[C@H](C)[C@@H]1NC(=O)[C@H](Cc2ccc(-c3ccccc3)cc2)NC(=O)[C@H](CC(C)C)NC(=O)[C@H](Cc2c[nH]c3ccccc23)NC(=O)[C@H](CC(=O)O)NC(=O)[C@H](Cc2ccc(O)cc2)NC(=O)[C@H](Cc2ccccc2)NC(=O)CSC[C@@H](C(=O)NCC(N)=O)NC(=O)[C@H](CO)NC(=O)[C@H](C(C)C)NC(=O)[C@H](CC(C)C)NC(=O)[C@H](CCN)NC(=O)[C@@H](CC(C)C)NC(=O)[C@H](C)N(C)C1=O` [Compound 1511] ({CH2CO}-FYDWL[Bip]I[NMeA][dL][Dab]LVSCG-NH2; thioether N-14), the IC50 was found to be 0.01 µM.

Turning to `CC(C)C[C@@H]1NC(=O)[C@H](CCCCN)NC(=O)[C@@H](CC(C)C)NC(=O)[C@H](C)N(C)C(=O)[C@H](Cc2cnc[nH]2)NC(=O)[C@H](Cc2ccc(-c3ccccc3)cc2)NC(=O)[C@H](C(C)C)NC(=O)[C@H](Cc2c[nH]c3ccccc23)NC(=O)[C@H](CC(=O)O)NC(=O)[C@H](Cc2ccc(O)cc2)NC(=O)[C@H](CC(N)=O)NC(=O)CSC[C@@H](C(=O)NCC(N)=O)NC(=O)[C@H]([C@@H](C)O)NC(=O)[C@H](C(C)C)NC1=O` [Compound 1484] ({CH2CO}-NYDWV[Bip]H[NMeA][dL]KLVTCG-NH2; thioether N-14), the IC50 came out at 0.07 µM.

For the compound `C#CC[C@H](NC(=O)[C@@H](C)NC(=O)[C@@H]1CSCC(=O)N[C@@H](Cc2ccc(OCC(=O)O)cc2)C(=O)N[C@@H](Cc2ccc(C(=O)O)cc2)C(=O)N[C@@H](CC(=O)O)C(=O)N[C@@H](Cc2c[nH]c3ccccc23)C(=O)N[C@@H](CC(C)C)C(=O)N[C@@H](Cc2ccc(-c3ccccc3)cc2)C(=O)N[C@@H](C(C)C)C(=O)N(C)[C@@H](C)C(=O)N[C@H](CC(C)C)C(=O)N[C@@H](CCN)C(=O)N[C@@H](CC2CCCCC2)C(=O)N[C@@H](C(C)(C)O)C(=O)N[C@@H](CO)C(=O)N1)C(=O)O` [Compound 1941] ({CH2CO}-Y(Carboxymethyl)[Phe(4-COOH)]DWL[Bip]V[NMeA][dL][Dab][Cha][Val(3-OH)]SC[dA][Pra]-OH; thioether N-14), the half-inhibitory concentration (IC50) was 0.01 µM.

Regarding `CCNC(=O)[C@H](CCN)NC(=O)[C@@H]1CSCC(=O)N[C@@H](Cc2cccs2)C(=O)N[C@@H](Cc2cccc(C#N)c2)C(=O)N[C@@H](CC(=O)O)C(=O)N[C@@H](Cc2cccc(C)c2)C(=O)N[C@@H](Cc2cccc(F)c2)C(=O)N[C@@H](Cc2ccc(-c3ccccc3)cc2)C(=O)N[C@@H](Cc2ccc(OCC(=O)O)cc2)C(=O)N(C)[C@@H](C)C(=O)N[C@H](CC(C)C)C(=O)N[C@@H](CCN)C(=O)N[C@@H](CC2CCCCC2)C(=O)N[C@@H](C(C)(C)O)C(=O)N[C@@H](CO)C(=O)N1` [Compound 1841] ({CH2CO}-[2Thi][Phe(3-CN)]D[Phe(3-Me)][Phe(3-F)][Bip]Y(Carboxymethyl)[NMeA][dL][Dab][Cha][Val(3-OH)]SC[Dab]-NHEt; thioether N-14), the IC50 stood at 0.02 µM.

On to `CC(C)C[C@H]1NC(=O)[C@H](C)N(C)C(=O)[C@H](CCCNC(N)=O)NC(=O)[C@H](Cc2ccc(-c3ccccc3)cc2)NC(=O)[C@H](C(C)C)NC(=O)[C@H](Cc2c[nH]c3ccccc23)NC(=O)[C@H](CC(=O)O)NC(=O)[C@H](Cc2ccc(O)cc2)NC(=O)[C@H](CC(N)=O)NC(=O)CSC[C@@H](C(=O)N[C@@H](C)C(N)=O)NC(=O)[C@H]([C@@H](C)O)NC(=O)[C@H](C(C)C)NC(=O)[C@H](CC2CCCCC2)NC(=O)[C@H](CCCNC(=N)N)NC1=O` [Compound 1304] ({CH2CO}-NYDWV[Bip][Cit][NMeA][dL]R[Cha]VTCA-NH2; thioether N-14), for which the IC50 stood at 0.02 µM.

Consider `CC(C)C[C@@H]1NC(=O)[C@H](CCN)NC(=O)[C@H](Cc2csc3ccccc23)NC(=O)[C@H](C)N(C)C(=O)[C@H](CCCN)NC(=O)[C@H](Cc2ccc(-c3ccccc3)cc2)NC(=O)[C@H](C(C)C)NC(=O)[C@H](Cc2c[nH]c3ccccc23)NC(=O)[C@H](CC(=O)O)NC(=O)[C@H](Cc2ccc(O)cc2)NC(=O)[C@H](Cc2ccccc2)NC(=O)CSC[C@@H](C(=O)N[C@@H](C)C(N)=O)NC(=O)[C@H]([C@@H](C)O)NC(=O)[C@H](C(C)C)NC1=O` [Compound 1122] ({CH2CO}-FYDWV[Bip][Orn][NMeA][Bta][Dab]LVTCA-NH2; thioether N-14), for which the IC50 is 0.24 µM.

With `CC(C)C[C@@H]1NC(=O)[C@H](CCCNC(=N)N)NC(=O)[C@@H](Cc2ccncc2)NC(=O)[C@H](C)N(C)C(=O)[C@H](CCCNC(=N)N)NC(=O)[C@H](Cc2ccc(-c3ccccc3)cc2)NC(=O)[C@H](C(C)C)NC(=O)[C@H](Cc2c[nH]c3ccccc23)NC(=O)[C@H](CC(=O)O)NC(=O)[C@H](Cc2ccc(O)cc2)NC(=O)[C@H](Cc2ccccc2)NC(=O)CSC[C@@H](C(=O)N[C@@H](C)C(N)=O)NC(=O)[C@H]([C@@H](C)O)NC(=O)[C@H](C(C)C)NC1=O` [Compound 1072] ({CH2CO}-FYDWV[Bip]R[NMeA][d4Pal]RLVTCA-NH2; thioether N-14), the IC50 came to 0.18 µM.

Turning to `CC(C)C[C@@H]1NC(=O)[C@H](CCCCN)NC(=O)[C@@H](CC(C)C)NC(=O)[C@H](C)N(C)C(=O)[C@H](CCCNC(N)=O)NC(=O)[C@H](Cc2ccc(-c3ccccc3)cc2)NC(=O)[C@H](C(C)C)NC(=O)[C@H](Cc2c[nH]c3ccccc23)NC(=O)[C@H](CC(=O)O)NC(=O)[C@H](Cc2ccc(O)cc2)NC(=O)[C@H](CC(N)=O)NC(=O)CSC[C@@H](C(=O)NCC(N)=O)NC(=O)[C@H](CO)NC(=O)[C@H](C(C)C)NC1=O` [Compound 1474] ({CH2CO}-NYDWV[Bip][Cit][NMeA][dL]KLVSCG-NH2; thioether N-14), the IC50 was 0.08 µM.

`CC(C)C[C@@H]1NC(=O)[C@H](CCN)NC(=O)[C@@H](CC(C)C)NC(=O)[C@H](C)N(C)C(=O)[C@H](CCCNC(=N)N)NC(=O)[C@H](Cc2ccc(-c3ccccc3)cc2)NC(=O)[C@H](C(C)C)NC(=O)[C@H](Cc2c[nH]c3ccccc23)NC(=O)[C@H](CC(=O)O)NC(=O)[C@H](Cc2ccc(C#N)cc2)NC(=O)[C@H](CC(N)=O)NC(=O)CSC[C@@H](C(=O)N[C@@H](C)C(N)=O)NC(=O)[C@H]([C@@H](C)O)NC(=O)[C@H](C(C)C)NC1=O` [Compound 1306] ({CH2CO}-N[Phe(4-CN)]DWV[Bip]R[NMeA][dL][Dab]LVTCA-NH2; thioether N-14): the IC50 worked out at 0.05 µM.

The values above are taken from patent US20240409585A1, “MACROCYCLIC IMMUNOMODULATORS” (priority 2021, published 2024).
